Measured values taken from the NIST ThermoML archive (doi:10.1016/j.fluid.2006.01.030).

Assay: xn = mol fraction of the nth substance listed
Details: Liquid

CCCCCCC [heptane] + CCO
viscosity [mPa·s]
Details | x2 = 0 | x2 = 0.125 | x2 = 0.25 | x2 = 0.375 | x2 = 0.5 | x2 = 0.625 | x2 = 0.75 | x2 = 0.875
293.15 K, 100 kPa, Capillary tube (Ostwald / Ubbelohde) method | 0.41 | 0.419 | 0.45 | 0.494 | 0.556 | 0.644 | 0.757 | 0.931
293.15 K, 20000 kPa, Falling or rolling sphere viscometry | 0.509 | 0.518 | 0.547 | 0.597 | 0.668 | 0.76 | 0.885 | 1.052
293.15 K, 40000 kPa, Falling or rolling sphere viscometry | 0.604 | 0.614 | 0.648 | 0.707 | 0.787 | 0.888 | 1.023 | 1.2
293.15 K, 60000 kPa, Falling or rolling sphere viscometry | 0.706 | 0.718 | 0.757 | 0.824 | 0.913 | 1.022 | 1.168 | 1.354
293.15 K, 80000 kPa, Falling or rolling sphere viscometry | 0.817 | 0.832 | 0.875 | 0.951 | 1.047 | 1.162 | 1.316 | 1.509
293.15 K, 100000 kPa, Falling or rolling sphere viscometry | 0.937 | 0.953 | 1.003 | 1.087 | 1.191 | 1.312 | 1.473 | 1.674
313.15 K, 100 kPa, Capillary tube (Ostwald / Ubbelohde) method | 0.333 | 0.336 | 0.354 | 0.383 | 0.421 | 0.475 | 0.55 | 0.66
313.15 K, 20000 kPa, Falling or rolling sphere viscometry | 0.408 | 0.413 | 0.429 | 0.464 | 0.508 | 0.567 | 0.65 | 0.766
313.15 K, 40000 kPa, Falling or rolling sphere viscometry | 0.487 | 0.495 | 0.513 | 0.553 | 0.602 | 0.666 | 0.756 | 0.877
313.15 K, 60000 kPa, Falling or rolling sphere viscometry | 0.57 | 0.579 | 0.599 | 0.644 | 0.699 | 0.768 | 0.864 | 0.989
313.15 K, 80000 kPa, Falling or rolling sphere viscometry | 0.658 | 0.666 | 0.69 | 0.739 | 0.8 | 0.874 | 0.974 | 1.102
313.15 K, 100000 kPa, Falling or rolling sphere viscometry | 0.751 | 0.758 | 0.786 | 0.838 | 0.906 | 0.984 | 1.088 | 1.217
333.15 K, 100 kPa, Capillary tube (Ostwald / Ubbelohde) method | 0.276 | 0.274 | 0.282 | 0.299 | 0.325 | 0.361 | 0.409 | 0.484
333.15 K, 20000 kPa, Falling or rolling sphere viscometry | 0.336 | 0.332 | 0.344 | 0.364 | 0.393 | 0.435 | 0.489 | 0.565
333.15 K, 40000 kPa, Falling or rolling sphere viscometry | 0.402 | 0.4 | 0.414 | 0.436 | 0.469 | 0.515 | 0.571 | 0.651
333.15 K, 60000 kPa, Falling or rolling sphere viscometry | 0.472 | 0.471 | 0.486 | 0.511 | 0.546 | 0.595 | 0.653 | 0.734
333.15 K, 80000 kPa, Falling or rolling sphere viscometry | 0.546 | 0.544 | 0.56 | 0.589 | 0.623 | 0.677 | 0.735 | 0.816
333.15 K, 100000 kPa, Falling or rolling sphere viscometry | 0.623 | 0.621 | 0.636 | 0.67 | 0.703 | 0.761 | 0.818 | 0.898
353.15 K, 100 kPa, Capillary tube (Ostwald / Ubbelohde) method | 0.232 | – | – | – | – | – | – | –
353.15 K, 20000 kPa, Falling or rolling sphere viscometry | 0.289 | 0.282 | 0.286 | 0.298 | 0.316 | 0.341 | 0.374 | 0.423
353.15 K, 40000 kPa, Falling or rolling sphere viscometry | 0.346 | 0.337 | 0.343 | 0.357 | 0.376 | 0.403 | 0.437 | 0.49
353.15 K, 60000 kPa, Falling or rolling sphere viscometry | 0.401 | 0.394 | 0.401 | 0.412 | 0.434 | 0.464 | 0.501 | 0.556
353.15 K, 80000 kPa, Falling or rolling sphere viscometry | 0.458 | 0.45 | 0.458 | 0.475 | 0.499 | 0.53 | 0.565 | 0.622
353.15 K, 100000 kPa, Falling or rolling sphere viscometry | 0.521 | 0.513 | 0.522 | 0.539 | 0.565 | 0.599 | 0.631 | 0.69
